Like-named read-outs stand apart in the source and are kept apart here.
Target: T1, TRPV3 in KU-19-19 cells (Homo sapiens, UniProt Q8NET8)
T1 construct: host or cells: KU-19-19
T1 sequence (Q8NET8 1-790): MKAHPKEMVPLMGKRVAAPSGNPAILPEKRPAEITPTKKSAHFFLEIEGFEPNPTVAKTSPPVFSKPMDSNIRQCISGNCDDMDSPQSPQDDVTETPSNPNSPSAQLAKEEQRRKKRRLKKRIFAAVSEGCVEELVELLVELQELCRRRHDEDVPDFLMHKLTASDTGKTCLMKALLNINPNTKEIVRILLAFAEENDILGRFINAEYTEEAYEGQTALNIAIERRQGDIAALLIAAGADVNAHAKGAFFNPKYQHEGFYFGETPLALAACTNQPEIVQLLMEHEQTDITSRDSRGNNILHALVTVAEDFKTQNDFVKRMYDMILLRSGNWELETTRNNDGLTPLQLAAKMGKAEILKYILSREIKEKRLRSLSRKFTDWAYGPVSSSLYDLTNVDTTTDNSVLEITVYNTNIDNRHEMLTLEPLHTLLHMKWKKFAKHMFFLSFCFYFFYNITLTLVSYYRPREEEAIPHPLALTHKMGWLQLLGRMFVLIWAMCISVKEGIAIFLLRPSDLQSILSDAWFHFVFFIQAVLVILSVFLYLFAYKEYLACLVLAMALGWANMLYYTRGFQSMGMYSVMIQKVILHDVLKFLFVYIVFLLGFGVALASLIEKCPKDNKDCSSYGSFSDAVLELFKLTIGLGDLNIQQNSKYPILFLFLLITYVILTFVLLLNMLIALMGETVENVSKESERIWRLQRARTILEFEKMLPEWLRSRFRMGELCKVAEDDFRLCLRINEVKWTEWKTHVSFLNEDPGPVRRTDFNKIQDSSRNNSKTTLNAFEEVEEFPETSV
Assay: calcium assay concentration-response in KU-19-19 cells
Format: cell-based
Details: read-out: EC50 for AV3-1-induced TRPV3 activation in KU-19-19 cells
Experimental: Supplementation of the cellular cholesterol content in KU-19-19 cells was performed by adding cholesterol-loaded methyl-β-cyclodextrin (MβCD) to the cells. Cholesterol was dissolved in ethanol (20 mg/mL) by heating at 65 °C for 15 minutes. The cholesterol solution was then added dropwise to a 250 mM MβCD solution prepared in phosphate-buffered solution (PBS; Sigma Aldrich) at a 1:4 (v/v) ratio, yielding a stock containing 200 mM MβCD-cholesterol. KU-19-19 cells were incubated for 15 minutes at 37 °C in HBS containing 2.5 mM MβCD-cholesterol. As a control, KU-19-19 cells were incubated in HBS without MβCD-cholesterol supplement under the same conditions.
All fluorometric Ca^2+ assays were performed in HBS buffer at room temperature. […] For the primary compound screening and the generation of concentration-response analyses, a robotic liquid handling station (Freedom Evo 150; Tecan) with a built-in custom-made fluorescence plate imager was used. […] Fluorescence was excited using a 470-nm light-emitting diode, and emitted light was imaged through a 515-nm–long pass filter with a cooled Zyla 5.5 camera (Andor). Fluorescence was recorded and processed under the control of the μ-Manager 2.0 gamma software (https://micro-manager.org.[28]). After recording baseline fluorescence, compounds were dispensed into the wells via the liquid handling device. […]

EC50 (cells not supplemented with cholesterol): 19 ± 1.5 µM
EC50 (cholesterol supplementation (2.5 mM MβCD-cholesterol)): 6.3 ± 1.9 µM
SMILES: COC(=O)C12CN(Cc3ccccc3)CC1(C(=O)OC)CN(Cc1ccccc1)C2 (centres unmarked) [AV3-1]

From article PMC12881674, “Activation of TRPV3 channels in bladder cancer cells stimulates ATP release” (Molecular Pharmacology, 2025)
